Each structure is given as a SMILES string.

One test deals with postpartum sows. Description: Timed injection 96 hours post-weaning and single timed insemination without estrus detection (Example 3). Type of test: in vivo, swine. To be noted: 50 mcg in SAIB 96 hours post-weaning; single insemination 28+/-2 hours later. Here is the method: Approximately 170 postpartum sows were randomly divided into two equal groups comprised of controls and treated. Following weaning, the controls were detected for estrus and bred following the normal standard operating procedures for the farms on which they resided. The treated sows received a 50 mcg dose of deslorelin in SAIB at 96 hours post-weaning and were bred with a single insemination 28+/−2 hours later with no regard to estrus detection. The sows were examined for pregnancy by ultrasound at 21 days and slaughtered around 28 days post breeding. The entire reproductive tract was removed and corpora lutea and embryos were counted.

In another test the test system is mature postpartum sows. Description: Intravulvar injection at estrus detection with AI in mature postpartum sows (Example 2). The class given is in vivo, swine. The conditions noted are these: 50 mcg intravulvar at first estrus detection. On the procedure:
Sows were assigned randomly in blocks of two to either control or to be injected intravulvar with 50 mcg of deslorelin in SAIB at the time of estrus detection for sows first detected in estrus in the a.m. and 12 hours later for those first detected in estrus in the p.m. Treated animals were bred AI upon detected estrus and again 24 hours later if still in estrus. Controls received a saline injection on first detected estrus behavior estrus detection and were bred according to the farm's normal procedures.

Turning to `CCNC(=O)[C@@H]1CCCN1C(=O)[C@H](CCCN=C(N)N)NC(=O)[C@H](CC(C)C)NC(=O)[C@@H](Cc1c[nH]c2ccccc12)NC(=O)[C@H](Cc1ccc(O)cc1)NC(=O)[C@H](CO)NC(=O)[C@H](Cc1c[nH]c2ccccc12)NC(=O)[C@H](Cc1cnc[nH]1)NC(=O)[C@@H]1CCC(=O)N1` [Deslorelin, deslorelin], the “Embryo Survival” value in the test on postpartum sows is on record as 64%. Also, in the test on mature postpartum sows, the “difference in pregnancy rates, Control versus Treated (in words)” value is listed as “no significant difference”.

Values taken from patent US9018165B2, “Process for the synchronization of ovulation for timed breeding without heat detection” (priority 2003, dated 2015).
